US7767665B2, “1,3-benzothiazinone derivatives and use thereof” (Takeda Pharmaceutical Company Limited, priority 2001, dated 2010)

Legend:
[1] = system: primary heart muscle cells from newborn rats; experiment: Inhibitory activity on heart muscle cell apoptosis (serum-free culture, viable cell number by WST-8); type: cell-based, Wister rats; conditions: Rattus norvegicus, 96 h; mean of three independent experiments; concentration required to increase the mean viable cell number by 50% as compared with that in the absence of test compounds; serum-free Medium 199, 4 days
Excerpt: Inhibitory Activity on Heart Muscle Cell Apoptosis
Newborn rats (within 1 day afterbirth) were obtained from pregnant Wister rats purchased from Charles River, anesthetized under ether, and sterilized with 70% ethanol, and then their hearts were excised with tweezers. The excised hearts were washed with a phosphate-buffered physiological saline (T900; Takara) and cut into pieces with surgical scissors. These tissue pieces were washed 4 to 5 times with a phosphate-buffered physiological saline to remove a majority of blood-derived non-heart muscle cells. To the tissue pieces derived from 10 newborns, 5 ml of enzyme solution (1.25 mg trypsin (Difco) and 0.25 mg collagenase (Sigma) per ml of phosphate-buffered saline (PBS)) was added and the mixture was stirred with a stirrer at 37° C. for 15 minutes. Another 2.5 ml enzyme solution was then added twice repeatedly at a 15-minutes interval. Then, Medium 199 (Gibco) containing 10% fetal calf serum (Biowiker) was added in a half volume of the enzyme solution to terminate the enzyme reaction. The cells were filtered through a Cell Strainer (Falcon) and then centrifuged at 400×g for 5 minutes, whereby the cells were collected.
The cells thus collected from 10 newborns were suspended in 50 ml Medium 199 containing 10% fetal calf serum, plated onto 100 mm Petri dishes (Iwaki) in a volume of 10 ml/dish and cultured for 1 hour in a CO2 incubator set at 5% CO2 and 37° C. The cells were then recovered, filtered through a Cell Strainer and centrifuged at 400×g for 5 minutes to collect the primary heart muscle cells derived from newborn rats.
Then, the heart muscle cells from 10 newborn rats were suspended in 2 ml low-isotonic solution (prepared by dissolving 8.29 g NH4Cl, 1.0 g KHCO3, 37 mg EDTA/2Na (ethylenediaminetetraacetic acid disodium) (Dojindo) in 1 L of water) and left for 3 minutes to disrupt erythrocytes. After 10 ml Medium 199 containing 10% fetal calf serum was added thereto, the primary heart muscle cells from newborn rats were collected by centrifugation at 400×g for 5 minutes. The cells were suspended in Medium 199 containing 10% fetal calf serum and then filtered through a cell strainer. After 0.3% trypan blue was added to, and mildly mixed with, an aliquot of the resulting cell suspension, the number of heart muscle cells was counted on an erythrocyte counting plate.
The primary heart muscle cells from newborn rats were suspended at a density of 3×10^6 cells/ml in Medium 199 containing 10% fetal calf serum, put onto a 96-well plate in a volume of 0.1 ml/well, and then cultured in a CO2 incubator set at 5% CO2 and 37° C. After the plate was stirred with a micromixer (Taiyo Kagaku Kogyo), the medium was exchanged 3 times with serum-free Medium 199, and then test compounds were added thereto. The cells were cultured for additional 4 days to induce apoptosis. Then, fetal calf serum was added thereto at a concentration of 10%, and the cells were further cultured for about 17 hours in a CO2 incubator set at 5% CO2 and 37° C. Finally, the number of viable cells was determined with Cell Counting Kit (Dojindo) using WST-8 (2-(2-methoxy-4-nitrophenyl)-3-(4-nitrophenyl)-5-(2,4-disulfophenyl)-2H-tetrazolium, monosodium salt) as the coloring substrate to determine the inhibition of the heart muscle cell apoptosis.
The above-mentioned experiment was triplicated in an independent manner.
The Mean minimal effective concentration (±SD) was shown for each test compound (Compounds 1 to 5 obtained in Reference Examples) in Table 1. In Table 1, the minimal effective concentration is defined as the concentration required to increase the mean viable cell number by 50% as compared with that in the absence of test compounds.

SMILES | minimal effective concentration [1] | melting point
CN(C)/C=N/S(=O)(=O)CC(C)(C)COc1cccc(-c2nc(=O)c3ccccc3s2)n1 [Example 100, N,N-(Dimethylaminomethylene)-2,2-dimethyl-3-{[6-(4-oxo-4H-1,3-benzothiazin-2-yl)-2-pyridyl]oxy}-1-propanesulfonamide] | 0.036 µM | 174.5 to 175.3 °C
CCSc1cccc(-c2nc(=O)c3ccccc3s2)n1 [Example 126, 2-[6-(Ethylthio)-2-pyridyl]-4H-1,3-benzothiazine-4-one] | 0.032 µM | 161.3 to 162 °C
O=c1nc(-c2ccccn2)sc2cc(C(F)(F)F)ccc12 [Example 85, 2-(2-Pyridyl)-7-trifluoromethyl-4H-1,3-benzothiazine-4-one] | 0.04 µM | 175.8 to 177 °C
O=c1nc(-c2cnccn2)sc2ccccc12 [Example 7, 2-Pyrazinyl-4H-1,3-benzothiazine-4-one] | 0.021 µM | 240.7 to 241.7 °C
CCCS(=O)(=O)c1cccc(-c2nc(=O)c3ccccc3s2)n1 [Example 61, 2-(6-Propylsulfonyl-2-pyridyl)-4H-1,3-benzothiazine-4-one] | 0.01 µM | 173.8 to 174.5 °C
O=c1nc(-c2ccccn2)sc2cc(F)ccc12 [Example 19, 7-Fluoro-2-(2-pyridyl)-4H-1,3-benzothiazine-4-one] | 0.025 µM | 250 to 250.2 °C
CCC[S+]([O-])c1cccc(-c2nc(=O)c3ccccc3s2)n1 (centres unmarked) [Example 60, 2-(6-Propylsulfinyl-2-pyridyl)-4H-1,3-benzothiazine-4-one] | 0.019 µM | 174.8 to 175.4 °C
CCOc1cccc(-c2nc(=O)c3ccccc3s2)n1 [Example 134, 2-(6-Ethoxy-2-pyridyl)-4H-1,3-benzothiazine-4-one] | 0.095 µM | 179.5 to 180 °C
COCOCc1cccc(-c2nc(=O)c3ccccc3s2)n1 [Example 65, 2-[(6-Methoxymethoxymethyl)-2-pyridyl]-4H-1,3-benzothiazine-4-one] | 0.045 µM | 159.6 to 159.8 °C
O=c1nc(-c2ccnc(N3CCOCC3)c2)sc2ccccc12 [Example 73, 2-(2-Morpholinyl-4-pyridyl)-4H-1,3-benzothiazine-4-one] | 0.024 µM | 157 to 158 °C
